Where “and” joins values, the source holds several entries; their conditions need not be identical. Equal values may be shown once. Read-outs that look alike come from different tables or passages of the source.
Key:
[1] = Metabolic stability in dog liver microsomes; format: in vitro ADME; conditions: for CLint scaled at 1 µM / half-life at 1 µM: pH 7.4; for CLint scaled at 1 µM: read-out: Predicted CL int, iv vivo; for half-life at 1 µM: read-out: in vitro t1/2
Method: FMO was deactivated by heating liver microsomes at 45°C for 5 min. […] The natural logarithm of the percentage of the drug remaining was plotted against the incubation time, and the slope of the linear regression (-k) was converted to in vitro half-lives (t1/2) using the following equation: […] (1) metabolic clearance is the major mechanism of clearance; (2) liver is the major organ of clearance; and (3) oxidation is the major metabolic pathway. CLint,in vitro=k / Cmicrosomes , Scaled CLint,in vivo=CLint,in vitro×microsomes yield×liver weight, where Cmicrosomes means the experimental protein concentration (0.5 mg/mL) in the incubation system. […] Then, the scaled in vivo intrinsic clearance was used to predict the systemic clearance (equal to the hepatic clearance) using the well-stirred venous equilibration model ([Houston, 1994]).

CYP1A2 = target: T1, CYP1A2 (Homo sapiens, UniProt P05177); test: Reversible CYP inhibition in HLM, CYP1A2 (phenacetin); format: in vitro ADME; conditions: for enzyme activity remaining: CYP1A2, HLM
T1 construct: tissue Life Technologies (Durham, NC, USA); host or cells: human liver microsomes
T1 sequence (P05177 1-516): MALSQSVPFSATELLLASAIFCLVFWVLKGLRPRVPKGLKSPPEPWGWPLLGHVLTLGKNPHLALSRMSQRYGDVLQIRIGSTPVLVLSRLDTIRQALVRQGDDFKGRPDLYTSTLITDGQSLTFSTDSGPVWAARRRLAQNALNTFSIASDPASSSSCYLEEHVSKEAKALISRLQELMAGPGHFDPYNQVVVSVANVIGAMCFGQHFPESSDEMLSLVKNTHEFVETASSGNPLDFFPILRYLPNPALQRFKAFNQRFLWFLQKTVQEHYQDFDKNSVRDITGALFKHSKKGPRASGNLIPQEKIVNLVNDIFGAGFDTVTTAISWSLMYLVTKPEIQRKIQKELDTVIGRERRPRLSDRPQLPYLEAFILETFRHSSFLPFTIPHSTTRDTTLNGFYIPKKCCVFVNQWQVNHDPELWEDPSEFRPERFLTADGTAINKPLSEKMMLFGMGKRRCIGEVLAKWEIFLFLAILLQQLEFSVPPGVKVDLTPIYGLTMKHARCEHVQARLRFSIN
Method: The markers used to determine the activities of CYP isoforms were phenacetin O-deethylation for CYP1A2 (probe substrate: 50 µM phenacetin), bupropion hydroxylation for CYP2B6 (probe substrate: 70 µM bupropion), paclitaxel 6α-hydroxylation for CYP2C8 (probe substrate: 10 µM paclitaxel), diclofenac 4′-hydroxylation for CYP2C9 (probe substrate: 5 µM diclofenac), S-(+)-mephenytoin 4′-hydroxylation for CYP2C19 (probe substrate: 20 µM S-(+)-mephenytoin), dextromethorphan O-demethylation for CYP2D6 (probe substrate: 6 µM dextromethorphan), chlorzoxazone 6′-hydroxylation for CYP2E1 (probe substrate: 70 µM chlorzoxazone), and testosterone 6β-hydroxylation and midazolam 1′-hydroxylation for CYP3A4/5 (probe substrate: 45 µM testosterone and 5 µM midazolam). […] Alpha-naphthoflavone (0.04 µM), 2-phenyl-2-(1-piperidinyl)propane (5 µM), quercetin (1 µM), sulfaphenazole (0.5 µM), ticlopidine (4 µM), quinidine (0.2 µM), diethyldithiocarbamate (20 µM), and ketoconazole (0.05 µM) were used as positive inhibitors of CYP1A2, 2B6, 2C8, 2C9, 2C19, 2D6, 2E1, and 3A4, respectively. The vehicle control was prepared in the same composition as inhibitor solutions but free of inhibitors. The concentrations of probe substrates were close to Km values that were determined in-house and within the range recommended by the FDA ([Huang et al., 2007]). Reaction mixtures were incubated at 37°C for 5, 20, or 30 min, depending on the probe substrates of CYP isoforms. The reactions were terminated by adding cold acetonitrile containing IS, and the terminated incubation mixtures were centrifuged at 3,000 g for 10 min before LC-MS/MS analysis.

CYP2B6 = conditions: male, human, 48 h
Method: (§1) […] […] […] Enzyme activity for each CYP isoform was reported as a fold change over vehicle control and the percent of positive control (detailed calculation in Supplementary 1.1). Hepatocytes were harvested with a lysis buffer from RNeasy 96 Kit (Qiagen Inc., Germantown, MD, USA) to isolate RNA, which was analyzed by real-time quantitative polymerase chain reaction (RT-PCR). […] Emax (the maximal observed induction) and EC50 (the concentration that supports half-maximal induction) were estimated by non-linear regression of fold increase in CYP mRNA expression versus concentration plots.
(§2) The fold of vehicle control and the percent of positive control were calculated with the formulas below:
(§3) Fold of vehicle control = CYPs activity of test compound (or positive control) treated sample / CYPs activity of vehicle control treated sample
(§4) % of positive control = [(fold change in treated sample)-1] / [(fold change in positive control)-1] × 100
(§5) Based on the enzyme activity, a minimum of 2-fold increase compared to vehicle control for the positive control and ≥40% of the positive control for the test article was considered as the cutoff for a positive signal in in vitro induction assay.

CYP2C19 = test: CYP induction in human hepatocytes, CYP2C19 enzyme activity; format: in vitro ADME
Method: as §1, §2, §3, §4, §5

[2] = FMO-deactivated liver microsomes, female dog liver microsomes, FMO deactivation
[3] = FMO-deactivated liver microsomes, male dog liver microsomes, FMO deactivation
[4] = female dog liver microsomes, normal
[5] = male dog liver microsomes, normal

## C[C@H](Nc1ncnc(N)c1C#N)c1cc2ncc(Cl)n2nc1-c1ccccc1 [Amdizalisib]
[1]; [2]
  CLint scaled at 1 µM: 50.4 mL/min/kg
  half-life at 1 µM: 39.6 min
[1]; [3]
  CLint scaled at 1 µM: 19.9 mL/min/kg
  half-life at 1 µM: 100 min
[1]; female dog liver microsomes, FMO deactivation
  Predicted CL sys: 19.2 mL/min/kg
[1]; [4]
  Predicted CL sys: 18.8 mL/min/kg
  CLint scaled at 1 µM: 48.1 mL/min/kg
  half-life at 1 µM: 41.5 min
[1]; male dog liver microsomes, FMO deactivation
  Predicted CL sys: 12.1 mL/min/kg
[1]; [5]
  Predicted CL sys: 12.4 mL/min/kg
  CLint scaled at 1 µM: 20.7 mL/min/kg
  half-life at 1 µM: 96.3 min
CYP1A2
  IC50: > 50 µM
CYP1A2; 0.08 μM
  enzyme activity remaining: 104% and 96.1%
CYP1A2; 0.4 μM
  enzyme activity remaining: 102% and 99.1%
CYP1A2; 2 μM
  enzyme activity remaining: 94.1% and 95.9%
CYP1A2; 10 μM
  enzyme activity remaining: 97.6% and 90.1%
CYP1A2; 50 μM
  enzyme activity remaining: 99.1% and 99.6%
CYP2B6; 1 µM
  Enzyme activity Percent of PC (%): 2.60%
CYP2B6; 3 µM
  Enzyme activity Percent of PC (%): 3.00%
CYP2B6; 10 µM
  Enzyme activity Percent of PC (%): 3.10%
CYP2B6; 20 µM
  Enzyme activity Percent of PC (%): -11.1%
CYP2B6; 30 µM
  Enzyme activity Percent of PC (%): -13.3%
CYP2C19; CYP2C19, donor eight, 0.3 µM
  Enzyme activity Percent of PC (%): 2.58%
CYP2C19; CYP2C19, donor eight, 3 µM
  Enzyme activity Percent of PC (%): -3.72%
CYP2C19; CYP2C19, donor eight, 20 µM
  Enzyme activity Percent of PC (%): -16.6%
CYP2C19; CYP2C19, donor four, 0.3 µM
  Enzyme activity Percent of PC (%): -2.17%
CYP2C19; CYP2C19, donor four, 3 µM
  Enzyme activity Percent of PC (%): -13.5%
CYP2C19; CYP2C19, donor four, 20 µM
  Enzyme activity Percent of PC (%): -28.3%
CYP2C19; CYP2C19, donor one, 0.3 µM
  Enzyme activity Percent of PC (%): 6.39%
CYP2C19; CYP2C19, donor one, 3 µM
  Enzyme activity Percent of PC (%): 1.83%
CYP2C19; CYP2C19, donor one, 20 µM
  Enzyme activity Percent of PC (%): -19.2%
CYP2C19; up to 20 µM, all three donors
  induction of CYP2C19 enzyme activity: no induction potential

Source: PMC11211886 (Frontiers in Pharmacology, 2024)
